Organism: Rattus norvegicus
Experiment: DrugMatrix - Regimen: Daily Repeat
Assay type: toxicity, organism-based, Sprague-Dawley
Set-up: regimen Daily Repeat, gender Male, age 6-8 weeks
Settings: in vivo, po, route oral GAVAGE, […]; for ABSOLUTE BASOPHIL / ABSOLUTE EOSINOPHIL / ABSOLUTE LYMPHOCYTE / ABSOLUTE MONOCYTE / ABSOLUTE SEGMENTED NEUTROPHIL / BASOPHIL / EOSINOPHIL / ERYTHROCYTE COUNT / HEMATOCRIT / HEMOGLOBIN / LEUKOCYTE COUNT / LYMPHOCYTE / MEAN CORPUSCULAR HEMOGLOBIN / MEAN CORPUSCULAR HEMOGLOBIN CONCENTRATION / MEAN CORPUSCULAR VOLUME / MONOCYTE / NEUTROPHIL / NUCLEATED RED BLOOD CELLS / PLATELET COUNT: tissue Blood; for ALANINE AMINOTRANSFERASE / ALBUMIN / ALKALINE PHOSPHATASE / ASPARTATE AMINOTRANSFERASE / BLOOD UREA NITROGEN / CARBON DIOXIDE / CHLORIDE / CHOLESTEROL / CREATINE PHOSPHOKINASE / CREATININE / GLUCOSE / LACTATE DEHYDROGENASE / LIPASE / PHOSPHORUS / POTASSIUM / SODIUM / TOTAL BILIRUBIN / TOTAL PROTEIN / URIC ACID: tissue Plasma
[1] = 0 mg/kg, 72 h, dose level Control, time 3 day
[2] = 0 mg/kg, 120 h, dose level Control, time 5 day
[3] = 10 mg/kg, 72 h, dose level Low, time 3 day

Compound: COc1cc(N)c(Cl)cc1C(=O)NC1CCN(CCCOc2ccc(F)cc2)CC1OC (centres undefined) [CISAPRIDE]
- ABSOLUTE BASOPHIL [1]: 0 CELLS/uL
- ABSOLUTE EOSINOPHIL [1]: 13.67 CELLS/uL
- ABSOLUTE LYMPHOCYTE [1]: 10069.5 CELLS/uL
- ABSOLUTE MONOCYTE [1]: 50 CELLS/uL
- ABSOLUTE SEGMENTED NEUTROPHIL [1]: 516.83 CELLS/uL
- BASOPHIL [1]: 0%
- EOSINOPHIL [1]: 0.17%
- ERYTHROCYTE COUNT [1]: 5.44 x10E6/uL
- HEMATOCRIT [1]: 33.88%
- HEMOGLOBIN [1]: 13.23 G/DL
- LEUKOCYTE COUNT [1]: 10.65 x10E3/uL
- LYMPHOCYTE [1]: 94.67%
- MEAN CORPUSCULAR HEMOGLOBIN [1]: 24.37 pg
- MEAN CORPUSCULAR HEMOGLOBIN CONCENTRATION [1]: 39.05 G/DL
- MEAN CORPUSCULAR VOLUME [1]: 62.38 fL
- MONOCYTE [1]: 0.67%
- NEUTROPHIL [1]: 4.5%
- NUCLEATED RED BLOOD CELLS [1]: 0.33 /100WBC
- PLATELET COUNT [1]: 414.5 x10E3/uL
- ALANINE AMINOTRANSFERASE [1]: 72 u/L
- ALBUMIN [1]: 3.75 G/DL
- ALKALINE PHOSPHATASE [1]: 375 u/L
- ASPARTATE AMINOTRANSFERASE [1]: 87.5 u/L
- BLOOD UREA NITROGEN [1]: 14 mg/dL
- CARBON DIOXIDE [1]: 27.5 mmol/L
- CHLORIDE [1]: 95.83 MEQ/L
- CHOLESTEROL [1]: 68.5 mg/dL
- CREATINE PHOSPHOKINASE [1]: 284.33 u/L
- CREATININE [1]: 0.16 mg/dL
- GLUCOSE [1]: 156.67 mg/dL
- LACTATE DEHYDROGENASE [1]: 101.83 u/L
- LIPASE [1]: 9.67 u/L
- PHOSPHORUS [1]: 10.33 mg/dL
- POTASSIUM [1]: 5.22 MEQ/L
- SODIUM [1]: 137.67 MEQ/L
- TOTAL BILIRUBIN [1]: 0.13 mg/dL
- TOTAL PROTEIN [1]: 5.43 G/DL
- URIC ACID [1]: 0.8 mg/dL
- ABSOLUTE BASOPHIL [2]: 0 CELLS/uL
- ABSOLUTE EOSINOPHIL [2]: 20.67 CELLS/uL
- ABSOLUTE LYMPHOCYTE [2]: 11518.33 CELLS/uL
- ABSOLUTE MONOCYTE [2]: 47 CELLS/uL
- ABSOLUTE SEGMENTED NEUTROPHIL [2]: 614 CELLS/uL
- BASOPHIL [2]: 0%
- EOSINOPHIL [2]: 0.17%
- ERYTHROCYTE COUNT [2]: 5.61 x10E6/uL
- HEMATOCRIT [2]: 34.25%
- HEMOGLOBIN [2]: 13.38 G/DL
- LEUKOCYTE COUNT [2]: 12.2 x10E3/uL
- LYMPHOCYTE [2]: 94.33%
- MEAN CORPUSCULAR HEMOGLOBIN [2]: 23.83 pg
- MEAN CORPUSCULAR HEMOGLOBIN CONCENTRATION [2]: 39.08 G/DL
- MEAN CORPUSCULAR VOLUME [2]: 61.03 fL
- MONOCYTE [2]: 0.33%
- NEUTROPHIL [2]: 5.17%
- NUCLEATED RED BLOOD CELLS [2]: 0 /100WBC
- PLATELET COUNT [2]: 941.83 x10E3/uL
- ALANINE AMINOTRANSFERASE [2]: 68.83 u/L
- ALBUMIN [2]: 4.12 G/DL
- ALKALINE PHOSPHATASE [2]: 492.67 u/L
- ASPARTATE AMINOTRANSFERASE [2]: 83.33 u/L
- BLOOD UREA NITROGEN [2]: 14 mg/dL
- CARBON DIOXIDE [2]: 37 mmol/L
- CHLORIDE [2]: 98.67 MEQ/L
- CHOLESTEROL [2]: 56.5 mg/dL
- CREATINE PHOSPHOKINASE [2]: 167.33 u/L
- CREATININE [2]: 0.17 mg/dL
- GLUCOSE [2]: 157.5 mg/dL
- LACTATE DEHYDROGENASE [2]: 104.83 u/L
- LIPASE [2]: 10 u/L
- PHOSPHORUS [2]: 10.43 mg/dL
- POTASSIUM [2]: 5.46 MEQ/L
- SODIUM [2]: 143.87 MEQ/L
- TOTAL BILIRUBIN [2]: 0.17 mg/dL
- TOTAL PROTEIN [2]: 5.72 G/DL
- URIC ACID [2]: 0.85 mg/dL
- ABSOLUTE BASOPHIL [3]: 0 CELLS/uL
- ABSOLUTE EOSINOPHIL [3]: 28.67 CELLS/uL
- ABSOLUTE LYMPHOCYTE [3]: 6489.33 CELLS/uL
- ABSOLUTE MONOCYTE [3]: 15.33 CELLS/uL
- ABSOLUTE SEGMENTED NEUTROPHIL [3]: 433.33 CELLS/uL
- BASOPHIL [3]: 0%
- EOSINOPHIL [3]: 0.33%
- ERYTHROCYTE COUNT [3]: 5.4 x10E6/uL
- HEMATOCRIT [3]: 33.3%
- HEMOGLOBIN [3]: 13.8 G/DL
- LEUKOCYTE COUNT [3]: 6.97 x10E3/uL
- LYMPHOCYTE [3]: 93%
- MEAN CORPUSCULAR HEMOGLOBIN [3]: 25.63 pg
- MEAN CORPUSCULAR HEMOGLOBIN CONCENTRATION [3]: 41.53 G/DL
- MEAN CORPUSCULAR VOLUME [3]: 61.73 fL
- MONOCYTE [3]: 0.33%
- NEUTROPHIL [3]: 6.33%
- NUCLEATED RED BLOOD CELLS [3]: 0 /100WBC
- PLATELET COUNT [3]: 546 x10E3/uL
- ALANINE AMINOTRANSFERASE [3]: 94.67 u/L
- ALBUMIN [3]: 3.93 G/DL
- ALKALINE PHOSPHATASE [3]: 442.33 u/L
- ASPARTATE AMINOTRANSFERASE [3]: 96.33 u/L
- BLOOD UREA NITROGEN [3]: 14.33 mg/dL
- CARBON DIOXIDE [3]: 26 mmol/L
- CHLORIDE [3]: 96.33 MEQ/L
- CHOLESTEROL [3]: 72.67 mg/dL
- CREATINE PHOSPHOKINASE [3]: 359.33 u/L
- CREATININE [3]: 0.12 mg/dL
- GLUCOSE [3]: 150 mg/dL
- LACTATE DEHYDROGENASE [3]: 116.67 u/L
- LIPASE [3]: 12 u/L
- PHOSPHORUS [3]: 10.9 mg/dL
- POTASSIUM [3]: 5.56 MEQ/L
- SODIUM [3]: 139.97 MEQ/L
- TOTAL BILIRUBIN [3]: 0.2 mg/dL
- TOTAL PROTEIN [3]: 5.53 G/DL
- URIC ACID [3]: 0.7 mg/dL
